# Experimental data taken from patent US9255279B2, “Anaplastic lymphoma kinase (ALK) as an oncogene capable of transforming normal human cells” (The Trustees of the University of Pennsylvania, priority 2013, dated 2016).
# How the values were obtained:
# NPM-ALK [1] = biological target: T1, NPM-ALK (Homo sapiens, UniProt Q9UM73); experiment: Western blotting of phosphorylated signaling proteins in NPM-ALK-transformed CD4+ T cells (NA1, NA2) and SUDHL-1; assay type: cell-based; set-up: expressed in transfected cells; host or cells: Human CD4+ T cells transduced with a lentiviral vector (lines NA1, NA2); The control line SUDHL-1 expresses NPM-ALK endogenously from the translocation; the other entry of the earlier key: NPM1 (P06748, Nucleophosmin); conditions: NA1, NA2 and control SUDHL-1 cells, 100 nM, FIG. 3A
# Method: (§1) These experiments were performed using antibodies against phosphorylated (p)-ALK, p-STAT3, p-S6RP, total S6RP (Cell Signaling Technology), total NPM-ALK (Pharmigen, San Diego, Calif.), and total STAT3 and actin (ACTB), both from Santa Cruz Biotechnology (Santa Cruz, Calif.), according to the standard protocols.
# A mixture of four siRNAs specific for ALK or control siRNAs (all from Dharmacon; Thermo Fisher Scientific, Waltham, Mass.) was introduced into cells using Lipofectamine 2000 as described previously (Marzec et al., 2008, Proc Natl Acad Sci USA 105(52):20852-20857) for SUDHL-1 cells and Nucleofector T-solution (Amaxa; Lonza, Walkersville, Md.) for CD4+ T-cell derived NA1 cells.
# NPM-ALK [2] = biological target: T1, NPM-ALK; experiment: Phosphorylation of ALK and its targets in NPM-ALK-transfected HEK cells; assay type: cell-based; set-up: expressed in transfected cells; the other entry of the earlier key: NPM1 (P06748, Nucleophosmin); conditions: higher dose of inhibitor needed, FIG. 10
# Method: as §1
# IL-10 = IL-10 assay; assay type: cell-based, human; conditions: 100 nM; FIG. 3C
# Method: IL-10 expression was using a Human Cytokine 10-Plex Antibody Bead Kit (Life Technologies) as per manufacturer protocol. Sample acquisition employed a Luminex FlexMAP-3D (Life Technologies), and analyses performed using xPONENT software (version 4.0). A nine-point standard curve at threefold dilutions was employed with the range defined by 80%-120% of expected/observed values. Samples were tested in duplicate and CV was <10%. The results are presented as the decrease in the ALK inhibitor (CEP-28122)-treated cells relative to untreated cells.
# Total RNA was extracted (RNeasy kit; Qiagen) and reverse transcribed using High Capacity RNA-to-cDNA kit (ABI). Expression levels of NPM-ALK mRNA were quantified by using an ABI/PRISM 7700 sequence detection system with TaqMan Gene Expression Assay kits (NPM-ALK, Hs03024829; β-actin, Hs9999903) (Life Technologies) and SYBR Green assay (Life Technologies) using primers for IL-10 (5′-AAGGCGCATGTGAACTCC-3′; SEQ ID NO: 1 and 5′-[…]-3′; SEQ ID NO: 2) and for GAPDH (5′-[…]-3′; SEQ ID NO: 3 and 5′-[…]-3′; SEQ ID NO: 4. All assays were performed in duplicate. The fold difference in RNA levels was calculated on the basis of the difference between CT values obtained for control and individual mRNA (ΔCT).
# CD30 [3] = experiment: CD30 expression in ALK-negative T-cell lymphoma line 2A; assay type: cell-based, human; conditions: ALK-negative T-cell lymphoma cells (2A); FIG. 3B
# Method: (§2) The cells were analyzed using FACSCalibur (BD Biosciences) and, for data analysis, CellQuest Pro software version 6.03 (BD Biosciences). For the standard cell-surface staining, 0.5−1.0×10^6 cells were incubated for 20 minutes at 4° C. with 10-20 ul of fluorescein isothiocyanate-conjugated (FITC), phycoerythrin-conjugated (PE), or allophycocyanin-conjugated (APC) standard anti-T- and B-cell antibodies, PD-L1 or isotype control antibody (Bio-Legend, San Diego, Calif.). The intracellular staining was performed by using commercially available fixation and permeabilization reagents (BD Biosciences or Life Technologies, Carlsbad, Calif.). In brief, 0.5−1.0×10^6 washed membrane-stained or unstained cells were fixed for 15 minutes at room temperature with 100 ul of Fix/Per-solution or Fixation medium. After washing the cells were re-suspended in 100 ul of PBS or Permeabilization medium, and incubated for 15 minutes at room temperature with 10-20 ul of PE-labeled ALK or isotype control antibody (BD Biosciences). After additional washing, cells were analyzed by flow cytometry (FACSCalibur; BD Biosciences). Data acquisition and analysis were performed using CellQuest Pro software version 6.03 (BD Biosciences).
# CD30 [4] = experiment: CD30 expression by flow cytometry in NPM-ALK-transformed CD4+ T cells and ALK+ALCL-derived cells; assay type: cell-based, human; conditions: 100 nM, FIG. 3B
# Method: as §2
# [5] = system: NPM-ALK-transformed CD4+ T cells; experiment: Cell growth of NPM-ALK-transformed CD4+ T cells; assay type: cell-based, human; conditions: FIG. 3E and FIG. 12A
# Method: The cells suspended at 2×10^4/well were incubated at 37° C. in microtiter plates for up to two days, then incubated with MTT (Promega Madison, […].) for 4 hours. Well contents were solubilized overnight in the medium containing 10% SDS and 0.01M HCL. Absorbance at 570 nm in each well was measured using a Titertek Multiskan reader (Thermo Fisher Scientific).
# The assay was performed using a cell-proliferation enzyme linked immunosorbent assay (ELISA; Roche Diagnostics, Indianapolis, Ind.) according to the manufacturer's protocol. In brief, cells were cultured at a concentration of 2×10^4 cells per well for 44 hours and labeled with bromodeoxyuridine for 4 hours. After centrifugation, supernatant removal, and plate drying, the cells were fixed and the DNA was denatured using FixDenat reagent (Roche Diagnostics). The amount of incorporated bromodeoxyuridine was determined by incubation with a specific antibody conjugated with horseradish peroxidase, followed by colorimetric conversion of the substrate and absorbance evaluation in the ELISA plate reader.
# For annexin V expression assay, cells were treated with the ALK inhibitor CEP-28122 (100 nmol/L) for 48 hours or with ALK siRNA (100 pmol/L) for 72 hours. […] The stained cells were analyzed by flow cytometry using a FACSCalibur system (BD Biosciences); data acquisition and analysis were performed using Cell-Quest Pro software (BD Biosciences).
# PD-L1 = PD-L1 expression by flow cytometry; assay type: cell-based, human; conditions: 100 nM; FIG. 3D
# Method: as §2
# T1 sequence (Q9UM73 with tags, fused parts or gaps): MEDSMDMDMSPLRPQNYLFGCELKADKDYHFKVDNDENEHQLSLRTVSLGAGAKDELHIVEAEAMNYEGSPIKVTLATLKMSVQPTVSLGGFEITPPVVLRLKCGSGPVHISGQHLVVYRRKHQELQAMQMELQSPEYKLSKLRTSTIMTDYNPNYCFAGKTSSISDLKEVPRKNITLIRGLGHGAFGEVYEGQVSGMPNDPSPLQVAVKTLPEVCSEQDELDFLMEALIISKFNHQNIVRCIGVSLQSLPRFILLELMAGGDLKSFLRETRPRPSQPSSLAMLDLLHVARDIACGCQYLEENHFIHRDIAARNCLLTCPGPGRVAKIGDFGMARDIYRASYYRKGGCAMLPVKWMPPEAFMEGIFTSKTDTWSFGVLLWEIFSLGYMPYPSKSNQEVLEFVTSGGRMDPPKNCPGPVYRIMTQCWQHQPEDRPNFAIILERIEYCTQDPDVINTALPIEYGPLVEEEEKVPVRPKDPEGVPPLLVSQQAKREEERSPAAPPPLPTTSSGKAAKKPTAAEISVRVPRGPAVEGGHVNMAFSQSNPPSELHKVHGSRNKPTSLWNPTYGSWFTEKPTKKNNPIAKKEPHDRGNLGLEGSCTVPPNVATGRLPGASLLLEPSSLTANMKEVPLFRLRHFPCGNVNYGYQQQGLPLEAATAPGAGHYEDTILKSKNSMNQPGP
smiles,measurement,setting,value
COc1c(Nc2ncc(Cl)c(N[C@H]3[C@@H](C(N)=O)[C@@H]4C=C[C@H]3C4)n2)ccc2c1CC[C@@H](N1CCOCC1)CC2 [CEP-28122],"phosphorylation of cell signaling proteins (ALK, STAT3, S6RP)",NPM-ALK [1],Suppressive effect
same,"phosphorylation of cell signaling proteins (ALK, STAT3, S6RP)",NPM-ALK [1]; listed as ALK inhibitor,suppression
same,"ALK, STAT3 and S6RP phosphorylation",NPM-ALK [2],suppress
same,synthesis of IL-10,IL-10,Suppressive effect
same,CD30 expression,CD30 [3],no effect
same,expression of CD30,CD30 [4],Suppressive effect
same,expression of CD30,CD30 [4]; listed as ALK inhibitor,diminished
same,cell growth,[5],dose-dependent inhibition
same,cell growth,[5]; listed as ALK inhibitor,suppressed
same,expression of PDL-1,PD-L1,Suppressive effect
